From patent EP1306084A1, “Compositions for the control of parasitic infestations in fish” (Alpharma AS, priority 1998, dated 1999)

What was measured:
sea lice [1] = assay: Oral or bath treatment in freshwater before sea transfer, sea lice counts after natural infestation (Example 6); type: in vivo, Atlantic salmon (Salmo salar)
Description: (§1) The treatment dosage was 9 mg hexaflumuron per kg fish per day for 10 days. This is indicated by "Groups/Timepoints" in the figure; • Figure 2 relates to the trial in Example 2 that was carried out on Atlantic salmon (Salmo salar). […] The treatment dosage varied between 3 - 9 mg hexaflumuron and 9- 12 mg fluazuron per kg fish per day for 7 days. This is indicated by "Groups/Timepoints" in the diagram. […] The treated groups are compared to an untreated control group. The treatment dosage was 4 mg hexaflumuron per kg fish per day for 5 days. This is indicated by "Groups/Timepoints" in the figure. Cage 2 = controls, Cage 4-6 = treated groups, 16.6.97 = time point for sea transfer and 5.8.97= controls treated by bathing with deltamethrin; • Figure 4 relates to the trial described in Example 5, which was carried out on sea trout (Salmo trutta). […] The treated groups are compared with an untreated control group. The dosage for oral treatment was 4 mg hexaflumuron per kilo fish per day for 5 days, and 5 ppm hexaflumuron as a 30 minute bath treatment. This is indicated by "Groups/Timepoints" in the figure. Cage 1.4 = Controls, cage 1.3 = Oral treatment, cage 1.2 = Bath treatment. […] The treated groups are compared with an untreated control group, and one group that has been treated orally with teflubenzuron (10 mg/kg of teflubenzuron per kg fish per day for 7 days). The dosage for oral treatment was 5.6 mg hexaflumuron per kg fish per day for 7 days, and 5 ppm hexaflumuron as a 30 minute bath treatment. […] End of treatment: 22.10.97, Sea transfer: 23.10.97. T1 = 3 weeks post end of treatment, T2 = 5 weeks post end of treatment, T3 = 9 weeks post end of treatment, T4 = 12 weeks post end of treatment; • Figure 6 relates to the trial in Example 6 at time points 4-6, with the same trial parameters as for Figure 5. T5 = 15 weeks post end of treatment, T6 = 17 weeks post end of treatment. Cage 3 and 4 were treated by bath with deltamethrin after sea lice counting at T4 (12.01.98); • Figure 7 relates to the trial described in Example 7 where salmon were injected on 17.12.97 with two formulations (groups L and R, respectively) of hexaflumuron and a vaccine formulation without hexaflumuron (control). […] The vaccinated fish was transferred to sea water on 09.01.98; • Figure 8 summarises the trial of Example 8 where salmon smolts were injected with 9 different active substances on 08.07.98. Only results for Moxidectin (Mox.), Lufenuron (Luf.) and hexaflumuron in Apoject 1-Fural (Hex.Apo) and in animal oil (Hex.oil) are shown, and • Figure 9 summarises the trial described in Example 10 where salmon were injected on 03.12.97 with 3 different formulations of hexaflumuron (Hexa 1, Hexa 2 and Hexa 3). The fish were transferred to sea water at T0.
About 400 Atlantic salmon (Salmo salar) of an average weight of 80 grams were divided into four groups of 100 fish in each. One group was given an oral treatment of 5.6 mg hexaflumuron per kg fish each day for 7 days before sea transfer. Group two was given a bath treatment with a dosage of 5 ppm (mg/l) hexaflumuron for 30 minutes with a formulation containing 10% hexaflumuron. Group three was given oral treatment with a daily dosage of 10 mg teflubenzuron per kg fish for 7 days, while the last group remained untreated. […] Every third week, lice from 10 fish in each cage were counted to assess if there was a difference in the number of lice between the cages. […]

sea lice [2] = assay: Injection of 9 active substances, protective effect against sea lice (Example 8); type: in vivo, salmon smolt; settings: for lice on average: T3, 70 days after injection, about 50 mg/kg, control group 5.6
Description: as §1
In this trial 9 different active substances were tested for protective effect against sea lice. 1,200 salmon smolt were, prior the start of the trial, vaccinated with a commercial vaccine, ALPHA JECT 5100.
One week after sea water transfer the salmon was divided into 12 groups and injected with different formulations of the 9 different active substances. In parallel with the 12 groups, a 13th group comprising 50 fish of the same origin and size was injected with a saline (PBS) solution without active substance. This group served as negative control/reference group in respect of sea lice infestations. The groups were marked by fin cutting and distributed randomly into 3 cages.
The active substances that were used as injection were hexaflumuron, buprofezin, diflubenzuron, fluazuron, lufenuron, ivermectin, doramectin, moxidectin and milbemycin oxime, respectively. All the fish were injected with 0.2 ml of the various injection formulations. Hexaflumuron, buprofezin, fluazuron, lufenuron and diflubenzuron were administered at a dosage of about 50 mg/kg whereas ivermectin, doramectin and moxidectin were administered at a dosage of 0.2 mg/kg (recommended dosage for mammals). […]

O=C(NC(=O)c1c(F)cccc1F)Nc1cc(Cl)c(OC(F)(F)C(F)F)c(Cl)c1 [hexaflumuron]
protection period (sea lice [1]; hexaflumuron oral or bath before sea transfer): at least 11 weeks | number of lice larger than Chalimus II versus control (sea lice [1]; oral 5.6 mg per kg each day for 7 days or bath 5 ppm for 30 minutes, 5, 8 and 11 weeks (time points 2, 3 and 4)): significantly lower | protection against sea lice (sea lice [2]; T2, 40 days after injection, hexaflumuron, lufenuron about 50 mg/kg, moxidectin 0.2 mg/kg): showed protection | lice on average (sea lice [2]; formulated in Apoject 1-Fural): 0 | lice on average (sea lice [2]; formulated in animal oil): 0.8 | protection against sea lice (sea lice [2]; T3, hexaflumuron in an aqueous suspension (PBS)): no protection | number of sea lice versus control group (sea lice [2]; T8 (218 days after injection), hexaflumuron in Apoject 1-Fural, animal oil): significantly lower | significant protection against sea lice until and including T10, time after injection (sea lice [2]; hexaflumuron formulated in Apoject 1-Fural or in animal oil): 9 months | prophylactic effect against sea lice (sea lice [2]; two groups of fish injected with hexaflumuron): ≤ 10 months
